Measurements taken from ChEMBL document CHEMBL1201862, “PubChem BioAssay data set” (2004).
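The compound was tested at five concentrations on cells cultured in 96-well plates, with a 48-hour exposure period. Abbreviation: GI50, concentration required for 50% inhibition of growth.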 Active and inactive are the calls of the source. Rule as the data show it: active = GI50 up to about 1.1 µM and inactive = higher.

Legend:
Experiment in all cases: inhibition of tumour cell growth, NCI panel, 48 h
UACC-62 = system: UACC-62
NCI-H23 = system: NCI-H23
CCRF-CEM = system: CCRF-CEM
SK-MEL-28 = system: SK-MEL-28
MOLT-4 = system: MOLT-4
UACC-257 = system: UACC-257
RXF 393 = system: RXF 393
A549 = system: A549
SNB-19 = system: SNB-19
NCI-H226 = system: NCI-H226
COLO 205 = system: COLO 205
KM12 = system: KM12
SK-MEL-2 = system: SK-MEL-2
RPMI-8226 = system: RPMI-8226
SF-295 = system: SF-295
SNB-75 = system: SNB-75
IGROV-1 = system: IGROV-1
U-251 = system: U-251
SN12C = system: SN12C
HOP-62 = system: HOP-62
UO-31 = system: UO-31
OVCAR-8 = system: OVCAR-8
NCI/ADR-RES = system: NCI/ADR-RES
NCI-H460 = system: NCI-H460
EKVX = system: EKVX
SF-539 = system: SF-539
HOP-92 = system: HOP-92
HCT-15 = system: HCT-15
CAKI-1 = system: CAKI-1
KM-20L2 = system: KM-20L2
A498 = system: A498
HL-60 = system: HL-60
OVCAR-5 = system: OVCAR-5
SW-620 = system: SW-620
SK-MEL-5 = system: SK-MEL-5
M19-MEL = system: M19-MEL
HCC 2998 = system: HCC 2998
DMS-114 = system: DMS-114
HT-29 = system: HT-29
DMS-273 = system: DMS-273
SK-OV-3 = system: SK-OV-3
HCT-116 = system: HCT-116
NCI-H522 = system: NCI-H522
HOP-18 = system: HOP-18
DLD-1 = system: DLD-1
Malme-3M = system: Malme-3M
K562 = system: K562
LOX IMVI = system: LOX IMVI
SNB-78 = system: SNB-78
OVCAR-4 = system: OVCAR-4
SF-268 = system: SF-268
MCF7 = system: MCF7
OVCAR-3 = system: OVCAR-3

For `Oc1cc(O)cc(/C=C/c2ccc(O)c(O)c2)c1` [PICEATANNOL], the GI50 (UACC-62) was 3.53 µM (inactive), the GI50 (NCI-H23) was 17.3 µM (inactive) and the GI50 (CCRF-CEM) was 4.32 µM (inactive). For the same compound, the GI50 (SK-MEL-28) was 49.9 µM (inactive), the GI50 (MOLT-4) was 5.51 µM (inactive) and the GI50 (UACC-257) was > 76.6 µM (inactive). For the same compound, the GI50 (RXF 393) was 8.77 µM (inactive), the GI50 (A549) was 18.8 µM (inactive) and the GI50 (SNB-19) was 24.8 µM (inactive). For the same compound, the GI50 (NCI-H226) was 19.5 µM (inactive), the GI50 (COLO 205) was 23.3 µM (inactive) and the GI50 (KM12) was 3.52 µM (inactive). The GI50 (SK-MEL-2) was 3.87 µM (inactive), the GI50 (RPMI-8226) was 10.3 µM (inactive) and the GI50 (SF-295) was 16.5 µM (inactive). For the same compound, the GI50 (SNB-75) was 14.1 µM (inactive), the GI50 (IGROV-1) was 9.64 µM (inactive) and the GI50 (U-251) was 15.4 µM (inactive). For the same compound, the GI50 (SN12C) was 12.4 µM (inactive), the GI50 (HOP-62) was 16.3 µM (inactive) and the GI50 (UO-31) was 10.4 µM (inactive). For the same compound, the GI50 (OVCAR-8) was 24.2 µM (inactive), the GI50 (NCI/ADR-RES) was 16.6 µM (inactive) and the GI50 (NCI-H460) was 22.2 µM (inactive). The GI50 (EKVX) was 28.2 µM (inactive), the GI50 (SF-539) was 8.91 µM (inactive) and the GI50 (HOP-92) was 12.3 µM (inactive). For the same compound, the GI50 (HCT-15) was 5.9 µM, the GI50 (CAKI-1) was 4.35 µM (inactive) and the GI50 (KM-20L2) was 23.4 µM (inactive). For the same compound, the GI50 (A498) was 40.9 µM (inactive), the GI50 (HL-60) was 2.74 µM (inactive) and the GI50 (OVCAR-5) was 5.06 µM (inactive). The GI50 (SW-620) was 13 µM (inactive), the GI50 (SK-MEL-5) was 11.1 µM (inactive) and the GI50 (M19-MEL) was 12.2 µM (inactive). The GI50 (HCC 2998) was 16.7 µM (inactive), the GI50 (DMS-114) was 5.66 µM (inactive) and the GI50 (HT-29) was 23.2 µM (inactive). For the same compound, the GI50 (DMS-273) was 12.3 µM (inactive), the GI50 (SK-OV-3) was 18.9 µM (inactive) and the GI50 (HCT-116) was 7.45 µM (inactive). For the same compound, the GI50 (NCI-H522) was 2.75 µM (inactive), the GI50 (HOP-18) was 45.5 µM (inactive) and the GI50 (DLD-1) was 8.57 µM (inactive). For the same compound, the GI50 (Malme-3M) was 26.1 µM (inactive), the GI50 (K562) was 4.49 µM (inactive) and the GI50 (LOX IMVI) was 11.9 µM (inactive). For the same compound, the GI50 (SNB-78) was 17.9 µM (inactive), the GI50 (OVCAR-4) was 15.5 µM (inactive) and the GI50 (SF-268) was 8.59 µM (inactive). For the same compound, the GI50 (MCF7) was 20.1 µM (inactive) and the GI50 (OVCAR-3) was 25.8 µM (inactive).
